Patent publication US20240287138A1, “CYCLIC PEPTIDES FOR INHIBITING TNF RECEPTOR 1 ACTIVITY” (Merck Sharp & Dohme LLC, priority 2023, published 2024)
Like-named read-outs stand apart in the source and are kept apart here. Numbered stars: 1 amine (or outer) side, 2 acyl side, 3 side chain; on linkers, the order of the positions; unused ones are H or OH. Bridge positions count the residues as written; N and C are the ends. Square brackets hold non-standard residues; d marks the D form. Peptide text beside a SMILES is read from it. Trp(βS-Me,7-OMe) = COc1cccc2c([C@H](C)[C@H](N)C(=O)O)c[nH]c12; Trp(7-CN) = N#Cc1cccc2c(C[C@H](N)C(=O)O)c[nH]c12; Trp(7-Cl) = N[C@@H](Cc1c[nH]c2c(Cl)cccc12)C(=O)O; Phe(3-CONH2) = NC(=O)c1cccc(C[C@H](N)C(=O)O)c1; Phe(4-CONH2) = NC(=O)c1ccc(C[C@H](N)C(=O)O)cc1; Phe(4-COOH) = N[C@@H](Cc1ccc(C(=O)O)cc1)C(=O)O; Trp(7-aza) = N[C@@H](Cc1c[nH]c2ncccc12)C(=O)O; Phe(4-CH2NH2) = NCc1ccc(C[C@H](N)C(=O)O)cc1; X23 = N[C@@H]1CCN([*:1])[C@H](C(=O)[*:2])C1; Pip(5R-OH) = O=C(O)[C@@H]1CC[C@@H](O)CN1; X1 = O=C([C@@H]1CC[C@H](N[*:1])C1)[*:2]; Nle(5,5-F2) = CC(F)(F)CC[C@H](N)C(=O)O; Pip(4-aza) = O=C(O)[C@@H]1CNCCN1; 4Pal = N[C@@H](Cc1ccncc1)C(=O)O; NMeE = CN[C@@H](CCC(=O)O)C(=O)O; dHyp = O=C(O)[C@H]1C[C@H](O)CN1; Pip = O=C(O)[C@@H]1CCCCN1; αMeS = C[C@](N)(CO)C(=O)O; Nle = CCCC[C@H](N)C(=O)O; Sar = CNCC(=O)O

Key:
[1] = target: T1, human soluble TNFR1 (sTNFR1) (Homo sapiens, UniProt P19438); assay: Human sTNFR1-peptide displacement assay (LanthaScreen Eu TR-FRET binding assay)
T1 construct: made in house; host or cells: Sf21 (baculovirus)
T1 sequence (P19438 with tags, fused parts or gaps): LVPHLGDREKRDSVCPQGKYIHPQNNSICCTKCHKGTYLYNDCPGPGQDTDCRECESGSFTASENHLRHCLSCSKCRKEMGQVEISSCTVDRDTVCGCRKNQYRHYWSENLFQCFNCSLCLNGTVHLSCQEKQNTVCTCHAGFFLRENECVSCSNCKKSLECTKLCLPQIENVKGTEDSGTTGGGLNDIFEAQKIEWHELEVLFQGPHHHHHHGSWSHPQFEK
Outline: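 Readout is the 665/615 nm TR-FRET ratio (Eu anti-His donor, streptavidin-Alexa647 acceptor), normalized to DMSO and saturating displacer, fit by Morrison-based five-parameter logistic for Kd^app. His-tagged sTNFR1 (1-211) prebound to 100 nM biotinylated peptide SEQ ID NO.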

[2] = target: T2, human TNFR1 extracellular domain (ECD) protein (Homo sapiens, UniProt P19438); assay: SPR binding affinity to captured human TNFR1 ECD
T2 construct: HRV 3C protease cleavage site (C); 6His (C, cleaved yes); made in house; host or cells: Sf21 insect cells (baculovirus), secreted
T2 sequence (P19438 30-211): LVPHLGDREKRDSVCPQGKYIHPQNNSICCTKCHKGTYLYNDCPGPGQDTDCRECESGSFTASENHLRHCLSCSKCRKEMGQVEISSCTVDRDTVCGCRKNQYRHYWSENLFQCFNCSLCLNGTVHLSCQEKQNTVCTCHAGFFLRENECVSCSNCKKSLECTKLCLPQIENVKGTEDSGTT
Outline: (§1)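 Peptide binding kinetics read by SPR in HEPES pH 7.4 running buffer with 2% DMSO, with TNFR2 ECD tested in parallel for off-target binding. Receptor ECDs, insect-cell expressed and biotinylated at C-terminal avi-tag, were captured via streptavidin. KA derived from association and dissociation rate constants.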

human TNFR2 ECD protein = target: T3, human TNFR2 ECD protein (Homo sapiens, UniProt P20333); assay: SPR off-target binding (selectivity) to human TNFR2 ECD
T3 construct: HRV 3C protease cleavage site (C); 6His (C, cleaved yes); made in house; host or cells: Sf21 insect cells (baculovirus), secreted
T3 sequence (P20333 23-257): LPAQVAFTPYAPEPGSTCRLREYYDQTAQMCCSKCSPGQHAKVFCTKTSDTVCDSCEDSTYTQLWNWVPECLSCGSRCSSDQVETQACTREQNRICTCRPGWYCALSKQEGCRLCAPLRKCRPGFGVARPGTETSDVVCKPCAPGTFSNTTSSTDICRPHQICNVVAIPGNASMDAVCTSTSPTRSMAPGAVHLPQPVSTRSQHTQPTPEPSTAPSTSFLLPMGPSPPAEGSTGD
Outline: as §1

[3] = displacement of biotinylated peptide SEQ ID NO. 1 from sTNFR1, 20 point titration, 5-parameter fit based on Morrison equation (tight binding), read-out: TR-FRET Kd^app
[4] = biotinylated human TNFR1 ECD on streptavidin chip, from kon and koff, read-out: SPR hTNFR1 KD
[5] = biotinylated human TNFR2 ECD on streptavidin chip, read-out: SPR hTNFR2 KD

Work on `CCCC[C@@H]1NC(=O)[C@@H]2CC[C@@H](C2)NC(=O)[C@H]([C@@H](C)c2c[nH]c3c(OC)cccc23)NC(=O)CN(C)C(=O)[C@H](Cc2cccc(C(N)=O)c2)NC(=O)[C@H](Cc2ccc(C(=O)O)cc2)NC(=O)[C@](C)(CO)NC(=O)[C@H](Cc2c[nH]c3c(Cl)cccc23)NC(=O)[C@H](Cc2ccncc2)NC(=O)[C@H](CC(N)=O)NC(=O)[C@H](CCC(=O)O)N(C)C(=O)[C@H](Cc2c[nH]c3ccccc23)NC(=O)[C@@H]2CCCCN2C(=O)[C@H](Cc2ccncc2)NC1=O` [SEQ ID NO. 221] (cyclo([4Pal][Pip]W[NMeE]N[4Pal][Trp(7-Cl)][αMeS][Phe(4-COOH)][Phe(3-CONH2)][Sar][Trp(βS-Me,7-OMe)][X1][Nle])) yielded a Kd [1, 3] of 0.31 nM, a Kd [2, 4] of 0.14 nM and a Kd (human TNFR2 ECD protein; [5]) of over 1000 nM.
Work on `CCCC[C@@H]1NC(=O)[C@@H]2CC[C@@H](C2)NC(=O)[C@H]([C@@H](C)c2c[nH]c3c(OC)cccc23)NC(=O)CN(C)C(=O)[C@H](Cc2ccc(C(N)=O)cc2)NC(=O)[C@H](Cc2ccc(C(N)=O)cc2)NC(=O)[C@](C)(CO)NC(=O)[C@H](Cc2c[nH]c3c(C#N)cccc23)NC(=O)[C@H](Cc2ccc(C(=O)O)cc2)NC(=O)[C@H](CC(N)=O)NC(=O)[C@H]2C[C@H](O)CN2C(=O)[C@H](Cc2c[nH]c3ncccc23)NC(=O)[C@@H]2CC[C@@H](O)CN2C(=O)[C@H](Cc2ccncc2)NC1=O` [SEQ ID NO. 254] (cyclo([4Pal][Pip(5R-OH)][Trp(7-aza)][dHyp]N[Phe(4-COOH)][Trp(7-CN)][αMeS][Phe(4-CONH2)][Phe(4-CONH2)][Sar][Trp(βS-Me,7-OMe)][X1][Nle])) yielded a Kd [1, 3] of 0.06 nM, a Kd [2, 4] of 0.02 nM and a Kd (human TNFR2 ECD protein; [5]) of over 1000 nM.
`CCCC[C@@H]1NC(=O)[C@@H]2CC[C@@H](C2)NC(=O)[C@H]([C@@H](C)c2c[nH]c3c(OC)cccc23)NC(=O)CN(C)C(=O)[C@H](Cc2ccc(CN)cc2)NC(=O)[C@H](Cc2ccc(C(=O)O)cc2)NC(=O)[C@](C)(CO)NC(=O)[C@H](Cc2c[nH]c3c(Cl)cccc23)NC(=O)[C@H](Cc2ccncc2)NC(=O)[C@H](CC(N)=O)NC(=O)[C@H](CCC(=O)O)N(C)C(=O)[C@H](Cc2c[nH]c3ccccc23)NC(=O)[C@@H]2CNCCN2C(=O)[C@H](Cc2ccncc2)NC1=O` [SEQ ID NO. 269] (cyclo([4Pal][Trp(7-Cl)][αMeS][Phe(4-COOH)][Phe(4-CH2NH2)][Sar][Trp(βS-Me,7-OMe)][X1][Nle][4Pal][Pip(4-aza)]W[NMeE]N)) was tested, and the Kd [1] was 0.08 nM, the Kd [2] was 0.1 nM and the Kd (human TNFR2 ECD protein) was over 1000 nM.
In the case of `CCCC[C@@H]1NC(=O)CSC[C@@H](C(N)=O)NC(=O)[C@H]([C@@H](C)c2c[nH]c3c(OC)cccc23)NC(=O)CN(C)C(=O)[C@H](Cc2ccc(O)cc2)NC(=O)[C@H](Cc2ccc(C(=O)O)cc2)NC(=O)[C@](C)(CO)NC(=O)[C@H](Cc2c[nH]c3c(Cl)cccc23)NC(=O)[C@H](Cc2ccncc2)NC(=O)[C@H](CC(N)=O)NC(=O)[C@H](CCC(=O)O)N(C)C(=O)[C@H](Cc2c[nH]c3ccccc23)NC(=O)[C@@H]2C[C@H](N)CCN2C(=O)[C@H](Cc2ccncc2)NC1=O` [SEQ ID NO. 271] ({CH2CO}-[Nle][4Pal][X23]W[NMeE]N[4Pal][Trp(7-Cl)][αMeS][Phe(4-COOH)]Y[Sar][Trp(βS-Me,7-OMe)]C-NH2; thioether N-14), the Kd [1] is reported as 0.95 nM, the Kd [2] is reported as 0.28 nM and the Kd (human TNFR2 ECD protein) is reported as over 1000 nM.
Compound `COc1cccc2c([C@H](C)[C@@H]3NC(=O)CN(C)C(=O)[C@H](Cc4ccc(O)cc4)NC(=O)[C@H](Cc4ccc(C(=O)O)cc4)NC(=O)[C@](C)(CO)NC(=O)[C@H](Cc4c[nH]c5c(Cl)cccc45)NC(=O)[C@H](Cc4ccncc4)NC(=O)[C@H](CC(N)=O)NC(=O)[C@H](CCC(=O)O)N(C)C(=O)[C@H](Cc4c[nH]c5ccccc45)NC(=O)[C@@H]4CNCCN4C(=O)[C@H](Cc4ccncc4)NC(=O)[C@H](CCC(C)(F)F)NC(=O)[C@@H]4CC[C@@H](C4)NC3=O)c[nH]c12` [SEQ ID NO. 275] (cyclo([4Pal][Trp(7-Cl)][αMeS][Phe(4-COOH)]Y[Sar][Trp(βS-Me,7-OMe)][X1][Nle(5,5-F2)][4Pal][Pip(4-aza)]W[NMeE]N)) has a Kd [1] of 0.36 nM, a Kd [2] of 0.3 nM and a Kd (human TNFR2 ECD protein) of over 1000 nM.
